# Results as given in BindingDB's records for doi:10.1016/j.bmc.2009.08.006 (Universitat de Barcelona, 2009).
# pEC50, pIC50, pKi: −log10 of the molar value.
# Target: 5-hydroxytryptamine receptor 6 (Homo sapiens, UniProt P50406)
# Assay: 5-HT6 Binding Assay
# Details: pH 7.4; 37 °C
# Description: The incubation was initiated by addition of membrane to reaction buffer contained radioligand in the presence of test compound. And the incubation time was 60 min at 37 deg C. After incubation, the membranes were collected onto polyethylenimine-pretreated glass fiber filters. Radioactivity was determined by scintillation counting. Nonspecific binding was determined with 100 uM serotonin. Competition binding data were analyzed by using the LIGAND program, and assays were performed in triplicate determinations for each point.
# Sequence of 5-hydroxytryptamine receptor 6 (P50406 whole entry): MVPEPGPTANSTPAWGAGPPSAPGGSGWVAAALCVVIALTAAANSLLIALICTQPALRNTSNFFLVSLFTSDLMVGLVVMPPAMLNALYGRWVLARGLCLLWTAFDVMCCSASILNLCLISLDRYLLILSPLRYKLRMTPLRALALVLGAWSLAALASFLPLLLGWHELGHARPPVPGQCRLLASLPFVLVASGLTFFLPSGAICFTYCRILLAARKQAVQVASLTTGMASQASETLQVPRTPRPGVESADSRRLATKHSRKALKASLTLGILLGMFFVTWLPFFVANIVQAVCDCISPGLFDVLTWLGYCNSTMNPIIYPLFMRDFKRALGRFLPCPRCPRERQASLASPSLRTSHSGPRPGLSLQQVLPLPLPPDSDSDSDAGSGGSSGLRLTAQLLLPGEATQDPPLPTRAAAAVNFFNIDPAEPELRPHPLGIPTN
pIC50,Compound,pEC50,pKi
–,CN(C)CCc1c[nH]c2ccc(NS(=O)(=O)c3ccc4c(Cl)cccc4c3)cc12,9.54,–
–,CN1CCC(c2cn(S(=O)(=O)c3ccccc3Br)c3ccccc23)C1 (centres undefined),7.27,–
–,CN(C)Cc1cn(S(=O)(=O)c2ccccc2)c2ccccc12,6.06,–
–,"Cc1cn(S(=O)(=O)c2ccc(N)cc2)c2ccccc12 [4-(3-methyl-1H-indole-1-sulfonyl)aniline, 8]",6.49,–
–,O=S(=O)(Nc1ccc2[nH]cc(C[C@H]3CCCN3)c2c1)c1ccccc1I [(R)-5a],9.40,9.00
5.52,"CC1=Cc2cc(NS(=O)(=O)c3c(Cl)nc4sccn34)ccc2C1 [indenylsulfonamide, 47+48]",–,7.37
–,"CN1CCC[C@H]1Cc1c[nH]c2ccc(NS(=O)(=O)c3ccc(C(F)(F)F)cc3)cc12 [pyrrolidinylindole, (S)-5b]",7.67,–
